Data reported in PubChem BioAssay (NCI).
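Cultured in 96-well plates, cells were exposed to test compound for 48 hours across five concentrations. Here, GI50 denotes the concentration required for 50% inhibition of growth. TGI: concentration producing complete growth inhibition.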

Legend:
Assay in all cases: NCI anticancer screen, dose series, 48 h
NCI-H226 lung = test system: NCI-H226 lung
RPMI-8226 leukemia = test system: RPMI-8226 leukemia
HCC-2998 colon = test system: HCC-2998 colon
NCI/ADR-RES ovarian = test system: NCI/ADR-RES ovarian
KM12 colon = test system: KM12 colon
SK-MEL-5 melanoma = test system: SK-MEL-5 melanoma
DU-145 prostate = test system: DU-145 prostate
OVCAR-5 ovarian = test system: OVCAR-5 ovarian
HS 578T breast = test system: HS 578T breast
ACHN renal = test system: ACHN renal
SNB-75 CNS = test system: SNB-75 CNS
SF-539 CNS = test system: SF-539 CNS
TK-10 renal = test system: TK-10 renal
SK-MEL-2 melanoma = test system: SK-MEL-2 melanoma
U251 CNS = test system: U251 CNS
A549 NSCLC = test system: A549 NSCLC
MOLT-4 leukemia = test system: MOLT-4 leukemia
A498 renal = test system: A498 renal
UACC-62 melanoma = test system: UACC-62 melanoma
PC-3 prostate = test system: PC-3 prostate
COLO 205 colon = test system: COLO 205 colon
MALME-3M melanoma = test system: MALME-3M melanoma
SN12C renal = test system: SN12C renal
UO-31 renal = test system: UO-31 renal
SK-MEL-28 melanoma = test system: SK-MEL-28 melanoma
OVCAR-8 ovarian = test system: OVCAR-8 ovarian
NCI-H23 lung = test system: NCI-H23 lung
SNB-19 CNS = test system: SNB-19 CNS
SW-620 colon = test system: SW-620 colon
M14 melanoma = test system: M14 melanoma
786-0 renal = test system: 786-0 renal
OVCAR-4 ovarian = test system: OVCAR-4 ovarian
SK-OV-3 ovarian = test system: SK-OV-3 ovarian
BT-549 breast = test system: BT-549 breast
SF-295 CNS = test system: SF-295 CNS
OVCAR-3 ovarian = test system: OVCAR-3 ovarian
SF-268 CNS = test system: SF-268 CNS
HL-60(TB) leukemia = test system: HL-60(TB) leukemia
NCI-H460 lung = test system: NCI-H460 lung
K-562 leukemia = test system: K-562 leukemia
IGROV1 ovarian = test system: IGROV1 ovarian
HCT-116 colon = test system: HCT-116 colon
HOP-62 NSCLC = test system: HOP-62 NSCLC
LOX IMVI melanoma = test system: LOX IMVI melanoma
UACC-257 melanoma = test system: UACC-257 melanoma
CCRF-CEM leukemia = test system: CCRF-CEM leukemia
T-47D breast = test system: T-47D breast
MDA-MB-435 = test system: MDA-MB-435
RXF 393 renal = test system: RXF 393 renal
HT29 colon = test system: HT29 colon
HCT-15 colon = test system: HCT-15 colon
EKVX NSCLC = test system: EKVX NSCLC
HOP-92 NSCLC = test system: HOP-92 NSCLC
NCI-H522 lung = test system: NCI-H522 lung
SR leukemia = test system: SR leukemia
MDA-MB-231 breast = test system: MDA-MB-231 breast
CAKI-1 renal = test system: CAKI-1 renal
MCF7 breast = test system: MCF7 breast

`O=S(=O)(NCCCNc1cc(-c2cn(-c3ccccc3)nc2-c2cccc(O)c2)ccn1)c1ccc(F)cc1` showed a GI50 (NCI-H226 lung) of 4.49 µM, a TGI (NCI-H226 lung) of 21.6 µM and a GI50 (RPMI-8226 leukemia) of 2.23 µM. The TGI (RPMI-8226 leukemia) was 7.63 µM, the GI50 (HCC-2998 colon) was 2.2 µM and the TGI (HCC-2998 colon) was 4.52 µM. For the same molecule, the GI50 (NCI/ADR-RES ovarian) was 3.24 µM, the TGI (NCI/ADR-RES ovarian) was 22.4 µM and the GI50 (KM12 colon) was 3.24 µM. It also gave a TGI (KM12 colon) of 11.7 µM, a GI50 (SK-MEL-5 melanoma) of 3.06 µM and a TGI (SK-MEL-5 melanoma) of 10.1 µM. For the same molecule, the GI50 (DU-145 prostate) was 4.12 µM, the TGI (DU-145 prostate) was 36.7 µM and the GI50 (OVCAR-5 ovarian) was 3.33 µM. It also gave a TGI (OVCAR-5 ovarian) of 33.5 µM, a GI50 (HS 578T breast) of 2.71 µM and a TGI (HS 578T breast) of 9.22 µM. The GI50 (ACHN renal) was 3.52 µM, the TGI (ACHN renal) was 33.8 µM and the GI50 (SNB-75 CNS) was 3.47 µM. It also gave a TGI (SNB-75 CNS) of 16 µM, a GI50 (SF-539 CNS) of 2.99 µM and a TGI (SF-539 CNS) of 15.8 µM. The GI50 (TK-10 renal) was 7.41 µM, the TGI (TK-10 renal) was 31.5 µM and the GI50 (SK-MEL-2 melanoma) was 2.79 µM. It also gave a TGI (SK-MEL-2 melanoma) of 9.14 µM, a GI50 (U251 CNS) of 2.97 µM and a TGI (U251 CNS) of 10.3 µM. For the same molecule, the GI50 (A549 NSCLC) was 5.11 µM, the TGI (A549 NSCLC) was 21 µM and the GI50 (MOLT-4 leukemia) was 2.15 µM. For the same molecule, the TGI (MOLT-4 leukemia) was 6.55 µM, the GI50 (A498 renal) was 2.49 µM and the TGI (A498 renal) was 9.81 µM. It also gave a GI50 (UACC-62 melanoma) of 2.92 µM, a TGI (UACC-62 melanoma) of 12 µM and a GI50 (PC-3 prostate) of 3.11 µM. The TGI (PC-3 prostate) was 8.5 µM, the GI50 (COLO 205 colon) was 1.96 µM and the TGI (COLO 205 colon) was 3.87 µM. For the same molecule, the GI50 (MALME-3M melanoma) was 2.56 µM, the TGI (MALME-3M melanoma) was 8.91 µM and the GI50 (SN12C renal) was 4.32 µM. For the same molecule, the TGI (SN12C renal) was 28.2 µM, the GI50 (UO-31 renal) was 2.62 µM and the TGI (UO-31 renal) was 11.9 µM. For the same molecule, the GI50 (SK-MEL-28 melanoma) was 2.58 µM, the TGI (SK-MEL-28 melanoma) was 8.27 µM and the GI50 (OVCAR-8 ovarian) was 4.15 µM. For the same molecule, the TGI (OVCAR-8 ovarian) was 18.3 µM, the GI50 (NCI-H23 lung) was 3.48 µM and the TGI (NCI-H23 lung) was 19 µM. For the same molecule, the GI50 (SNB-19 CNS) was 4.67 µM, the TGI (SNB-19 CNS) was 52.3 µM and the GI50 (SW-620 colon) was 3.76 µM. It also gave a TGI (SW-620 colon) of 14.2 µM, a GI50 (M14 melanoma) of 2.85 µM and a TGI (M14 melanoma) of 8.75 µM. The GI50 (786-0 renal) was 2.35 µM, the TGI (786-0 renal) was 6.23 µM and the GI50 (OVCAR-4 ovarian) was 3.82 µM. The TGI (OVCAR-4 ovarian) was 48.9 µM, the GI50 (SK-OV-3 ovarian) was 4.44 µM and the TGI (SK-OV-3 ovarian) was 23.5 µM. The GI50 (BT-549 breast) was 2.28 µM, the TGI (BT-549 breast) was 7.78 µM and the GI50 (SF-295 CNS) was 1.95 µM. It also gave a TGI (SF-295 CNS) of 4.09 µM, a GI50 (OVCAR-3 ovarian) of 3.28 µM and a TGI (OVCAR-3 ovarian) of 14.9 µM. For the same molecule, the GI50 (SF-268 CNS) was 3.65 µM, the TGI (SF-268 CNS) was 22.9 µM and the GI50 (HL-60(TB) leukemia) was 2.2 µM. It also gave a TGI (HL-60(TB) leukemia) of 5.85 µM, a GI50 (NCI-H460 lung) of 3.64 µM and a TGI (NCI-H460 lung) of 13.9 µM. For the same molecule, the GI50 (K-562 leukemia) was 2.4 µM, the TGI (K-562 leukemia) was 6.38 µM and the GI50 (IGROV1 ovarian) was 4.29 µM. The TGI (IGROV1 ovarian) was 33.5 µM, the GI50 (HCT-116 colon) was 2.91 µM and the TGI (HCT-116 colon) was 11.7 µM. For the same molecule, the GI50 (HOP-62 NSCLC) was 4.98 µM, the TGI (HOP-62 NSCLC) was 19.3 µM and the GI50 (LOX IMVI melanoma) was 3 µM. The TGI (LOX IMVI melanoma) was 10.7 µM, the GI50 (UACC-257 melanoma) was 2.92 µM and the TGI (UACC-257 melanoma) was 7.26 µM. It also gave a GI50 (CCRF-CEM leukemia) of 2.45 µM, a TGI (CCRF-CEM leukemia) of 9.41 µM and a GI50 (T-47D breast) of 2.89 µM. For the same molecule, the TGI (T-47D breast) was 8.76 µM, the GI50 (MDA-MB-435) was 3.36 µM and the TGI (MDA-MB-435) was 12.9 µM. For the same molecule, the GI50 (RXF 393 renal) was 3.21 µM, the TGI (RXF 393 renal) was 14.6 µM and the GI50 (HT29 colon) was 2.26 µM. The TGI (HT29 colon) was 6.5 µM, the GI50 (HCT-15 colon) was 2.45 µM and the TGI (HCT-15 colon) was 7.9 µM. For the same molecule, the GI50 (EKVX NSCLC) was 3.92 µM, the TGI (EKVX NSCLC) was 64.4 µM and the GI50 (HOP-92 NSCLC) was 2.66 µM. The TGI (HOP-92 NSCLC) was 7.62 µM, the GI50 (NCI-H522 lung) was 2.29 µM and the TGI (NCI-H522 lung) was 7.44 µM. For the same molecule, the GI50 (SR leukemia) was 2.08 µM, the TGI (SR leukemia) was 6.09 µM and the GI50 (MDA-MB-231 breast) was 2.48 µM. For the same molecule, the TGI (MDA-MB-231 breast) was 7.19 µM, the GI50 (CAKI-1 renal) was 4.56 µM and the TGI (CAKI-1 renal) was 44.6 µM. For the same molecule, the GI50 (MCF7 breast) was 3.26 µM and the TGI (MCF7 breast) was 12.4 µM.
